Measured values published in patent US11492361B2, “Compounds useful in HIV therapy” (GlaxoSmithKline Intellectual Property Development Limited, priority 2018, dated 2022).
Counter-ions that a name gives are not always drawn. Like-named read-outs stand apart in the source and are kept apart here.

Legend:
[1] = system: Jurkat HIV-luciferase clones; test: Jurkat latency reversal assay; format: cell-based; conditions: Homo sapiens, Jurkat
Procedure, shortened: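 Three pooled Jurkat HIV-luciferase clones (C16, I15, N6; 5,000 cells/well, maintained with 500 nM EFV) exposed to 3-fold, 14-point titrations (10 μM to 2.1 pM, 0.5% DMSO) in duplicate for 48 h at 37 °C. Luciferase luminescence read; EC50 and maximal % activation versus vehicle from four-parameter logistic fit.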

[2] = system: NFKB2; test: NFkB2 gene induction; format: cell-based, human; conditions: Homo sapiens, CD4+ T, 24 h, read-out: NFkB2 gene induction EC50 (nM)
Experimental: 5×10^5 normal donor CD4 T cells were treated for 24h with serial dilutions of compounds starting at 1.0 μM at 6 fold, 7 places. Total RNA was isolated using the RNEasy Mini kit (Qiagen) per the manufacturer's instructions. The following TaqMan primer probe sets were sourced from Applied Biosystems: Hs00174517_m1 (NFKB2) and Hs02800695 (HPRT1). TaqMan-based real-time PCR (Fast Virus 1-Step Master Mix, Applied Biosystems) was used to amplify host genes of interest. Gene expression was normalized to HPRT1 and comparative threshold cycle (CT) method (ΔΔCT) was used for relative fold change of gene expression as compared to untreated cells. The data was analyzed by QuantStudio3 Real-Time PCR System.

[3] = system: p100/p52; test: p100/p52 Western blot (WB) assay; format: cell-based, human; conditions: Homo sapiens
Experimental: Cell cultures were set up to evaluate several SMACm compounds. Frozen PBMC cells from healthy donors were thawed and plated in 2 ml deepwell plates at 2×10^6 cells/ml. Serial dilutions of each compound was carried out as a 7 fold 1:6 dilution with the starting final dose of 1000 nM. Cells were then combined with compound and place at 37° for 24 hrs. The following day cells were pelleted and placed at −80 until lysis.
In preparation for cell lysis, the frozen cell pellets and an aliquot of NP40 Cell Lysis Buffer (Invitrogen, Part #FNN0021), as well as an aliquot of 10× Protease Inhibitor Cocktail (Sigma, Part #P-2714) are thawed on ice. Once thawed, the complete lysis buffer is prepared by adding 10% final volume PI cocktail to the NP40 buffer and then adding in sufficient volume of 0.1 M PMSF (Sigma, Part #93482) and 1 M DTT (Sigma, Part #43816) to create a final concentration of 1 mM each in the complete lysis buffer. Cell lysis is then carried out by resuspending each cell pellet in 30 μL per 10^6 cells then incubating on ice for 30 minutes with vigorous vortexing every 10 minutes. The lysed cells are then centrifuged at 13K RPM for 10 minutes at 4° C. in a refrigerated microcentrifuge. The supernatants (lysates) are then transferred into new microcentrifuge tubes and either stored at −80° or utilized immediately for protein concentration and Western blot analysis.
Protein concentration for each lysate is determined using a detergent compatible Bradford assay (Pierce, Part #23246) following the manufacturer's microplate instructions.
Capillary Western analysis were performed using the ProteinSimple Jess System. A total of 1 ug of cell lysate was prepared according to the provided protocol supplied by ProteinSimple. The primary antibody for p100/p52 (Cell, Signaling #3017) is diluted 1:10 for use in the Jess system. The 12-230 kDa Jess Seperation Module capillary cartridges Separation Module (SM-W004) is used in conjunction with the Anti-Rabbit Secondary NIR conjugate (043-819). The Separation module includes prefilled plates that the samples, primary and secondary antibodies, as well as protein normalization reagent and diluents are loaded onto to perform separation and detection. Once the assay has run, the data is then analyzed utilizing the Compass software provided by ProteinSimple.
Alternatively to capillary electrophoresis, traditional immunoblot assays were carried out, 10 μg of cell lysate was loaded per well into 4-20% Tris-Glycine SDS-PAGE gels. Protein from the SDS-PAGE gels were transferred to Turbo Midi PVDF Transfer Packs (BioRad) using the “Mixed MW” protocol for one Midi Format Gel (constant 2.5 A up to 25V, for 7 minutes) of the Trans-Blot Turbo Transfer System (Bio-Rad) with premade Trans-Blot per the manufacturer's instructions. After transfer, PVDF membranes were blocked in 5% bovine serum albumin (BSA) in 1×TBS (BioRad) with 0.1% Tween-20 for 1 hour at room temperature with gentle rocking. Primary antibodies were added and incubated overnight at 4° C. (anti-p100/p52, Cell Signaling Technology #3017, 1:1000; anti-Actin-HRP conjugate, Abcam #49900, 1:30,000). Following primary staining, the membrane washed three times with 1× Tris Buffered Saline (TBS)+0.1% TWEEN® 20 for 10 minutes each wash. After washing, the membrane was incubated in 5% BSA in 1×TBS+0.1% TWEEN® 20 with the appropriate secondary antibody for 2 hours at room temperature. Following secondary stain the membrane was washed twice for 10 minutes with 1×TBS+0.1% TWEEN® 20 followed by a 10-minute wash with 1×TBS. The membrane was then patted dry with filter paper and an image was captured of the undeveloped membrane on the ChemiDoc MP Imaging System using Image Lab software (BioRad). Sufficient ECL reagent (GE Healthcare) was used to cover the membrane and a series of images were taken starting with 0.001 second and doubling to tripling the exposure time until the luminescence from the developed membrane saturated the image. […]

[4] = system: cell-associated HIV RNA (HIV gag RNA) in CD4+ T cells; conditions: background statement, primary cells / resting CD4+ T cells; cited from earlier work
[5] = system: Jurkat HIV-luciferase clones; conditions: background statement; cited from earlier work
[6] = system: p100/p52; conditions: background statement, primary cells; cited from earlier work
[7] = Table 4 summary, read-out: Jurkat EC50
[8] = PBMC, 24 h, read-out: p100/p52 Western Blot (WB) EC50 (nM)

Row | SMILES | EC50 ([1]; 48 h) | EC50 [1, 7] | EC50 [2] | EC50 [3, 8] | HIV caRNA induction [4] | potency in cell line assays / Jurkat (HIV latency reversal) [5] | p100-p52 conversion [6] | EC50 ([1]; 48 h, Table 4 summary, read-out: Jurkat EC50) | EC50 ([3]; PBMC cells from healthy donors, 24 hrs, read-out: p100/p52 Western Blot (WB) EC50)
1 | CN[C@@H](C)C(=O)N[C@H]1CCS[C@H]2CC(C)(C)[C@@H](C(=O)N[C@H]3c4ccccc4C[C@H]3OCCCCCCO[C@@H]3Cc4ccccc4[C@@H]3NC(=O)[C@H]3N4C(=O)[C@@H](NC(=O)[C@H](C)NC)CCS[C@H]4CC3(C)C)N2C1=O [compound 20, (4S,4′S,7S,7′S,9aS,9a′S)-N,N′-((1S,1′S,2R,2′R)-(hexane-1,6-diylbis(oxy))bis(2,3-dihydro-1H-indene-2,1-diyl))bis(8,8-dimethyl-4-((S)-2-(methylamino)propanamido)-5-oxooctahydropyrrolo[2,1-b][1,3]thiazepine-7-carboxamide)] | 11.9 nM | 11.9 nM | 75 nM | 3.1 nM |  |  |  |  | 
2 | CN[C@@H](C)C(=O)N[C@H]1CCS[C@H]2CC(C)(C)[C@@H](C(=O)N[C@H](COCCCCCCOC[C@@H](NC(=O)[C@H]3N4C(=O)[C@@H](NC(=O)[C@H](C)NC)CCS[C@H]4CC3(C)C)c3ccccc3)c3ccccc3)N2C1=O [compound 40, (4S,4′S,7S,7′S,9aS,9a′S)-N,N′-((1S,1′S)-(hexane-1,6-diylbis(oxy))bis(1-phenylethane-2,1-diyl))bis(8,8-dimethyl-4-((S)-2-(methylamino)propanamido)-5-oxooctahydropyrrolo[2,1-b][1,3]thiazepine-7-carboxamide) dihydrochloride] | 6.1 nM | 6.1 nM | 11 nM | 1 nM |  |  |  |  | 
3 | CN[C@@H](C)C(=O)N[C@H]1CCS[C@H]2CC(C)(C)[C@@H](C(=O)N[C@H](COCC#CC#CCOC[C@@H](NC(=O)[C@H]3N4C(=O)[C@@H](NC(=O)[C@H](C)NC)CCS[C@H]4CC3(C)C)c3ccccc3)c3ccccc3)N2C1=O [compound 33, (4S,4′S,7S,7′S,9aS,9a′S)-N,N′-((1S,1′S)-(hexa-2,4-diyne-1,6-diylbis(oxy))bis(1-phenylethane-2,1-diyl))bis(8,8-dimethyl-4-((S)-2-(methylamino)propanamido)-5-oxooctahydropyrrolo[2,1-b][1,3]thiazepine-7-carboxamide) dihydrochloride] | 5.5 nM | 5.5 nM | 46 nM | 158 nM |  |  |  |  | 
4 | CN[C@@H](C)C(=O)N[C@H]1CCS[C@H]2CC(C)(C)[C@@H](C(=O)N[C@H](COCc3ccc(COC[C@@H](NC(=O)[C@H]4N5C(=O)[C@@H](NC(=O)[C@H](C)NC)CCS[C@H]5CC4(C)C)c4ccccc4)cc3)c3ccccc3)N2C1=O [compound 42, (4S,4′S,7S,7′S,9aS,9a′S)-N,N′-((1S,1′S)-((1,4-phenylenebis(methylene))bis(oxy))bis(1-phenylethane-2,1-diyl))bis(8,8-dimethyl-4-((S)-2-(methylamino)propanamido)-5-oxooctahydropyrrolo[2,1-b][1,3]thiazepine-7-carboxamide) dihydrochloride] | 6.8 nM | 6.8 nM | 3.6 nM | 3.1 nM |  |  |  |  | 
5 | CN[C@@H](C)C(=O)N[C@H]1CCS[C@H]2CC(C)(C)[C@@H](C(=O)N[C@H]3c4ccccc4C[C@H]3OCC#CC#CCO[C@@H]3Cc4ccccc4[C@@H]3NC(=O)[C@H]3N4C(=O)[C@@H](NC(=O)[C@H](C)NC)CCS[C@H]4CC3(C)C)N2C1=O [compound 13, (4S,4′S,7S,7′S,9aS,9a′S)-N,N′-((1S,1′S,2R,2′R)-(hexa-2,4-diyne-1,6-diylbis(oxy))bis(2,3-dihydro-1H-indene-2,1-diyl))bis(8,8-dimethyl-4-((S)-2-(methylamino)propanamido)-5-oxooctahydropyrrolo[2,1-b][1,3]thiazepine-7-carboxamide) dihydrochloride] | 9.3 nM | 9.3 nM | 73 nM | 12.6 nM |  |  |  |  | 
6 | CC[C@H](NC(=O)[C@H](C)NC)C(=O)N1C[C@@H](O)C[C@H]1Cc1c(-c2[nH]c3cc(F)ccc3c2C[C@@H]2C[C@H](O)CN2C(=O)[C@H](CC)NC(=O)[C@H](C)NC)[nH]c2cc(F)ccc12 [Birinapant TL32711] |  |  |  |  | not potent | not potent | not potent |  | 
7 | CN[C@@H](C)C(=O)N[C@H]1CCO[C@H]2CC(C)(C)C(C(=O)Nc3ccccc3SSc3ccccc3NC(=O)C3N4C(=O)[C@@H](NC(=O)[C@H](C)NC)CCO[C@H]4CC3(C)C)N2C1=O (stereo partly shown) [Formula F, reference compound] |  |  |  |  |  |  |  | ~1000 nM | > 1000 nM
